Source: patent publication US20240409585A1, “MACROCYCLIC IMMUNOMODULATORS” (priority 2021, published 2024)
Numbered stars: 1 amine (or outer) side, 2 acyl side, 3 side chain; on linkers, the order of the positions; unused ones are H or OH. Bridge positions count the residues as written; N and C are the ends. Square brackets hold non-standard residues; d marks the D form. Peptide text beside a SMILES is read from it. * marks the point of attachment. ξ: configuration not given here. Bip(4'-NHAc) = CC(=O)Nc1ccc(-c2ccc(C[C@H](N)C(=O)O)cc2)cc1; Phe(3-CF3) = N[C@@H](Cc1cccc(C(F)(F)F)c1)C(=O)O; Ala(morpholin-4-yl) = N[C@@H](CN1CCOCC1)C(=O)O; Phe(4-COOH) = N[C@@H](Cc1ccc(C(=O)O)cc1)C(=O)O; Bip = N[C@@H](Cc1ccc(-c2ccccc2)cc1)C(=O)O; Phe(4-CN) = N#Cc1ccc(C[C@H](N)C(=O)O)cc1; Abu(3R-NH2) = C[C@@H](N)[C@H](N)C(=O)O; Phe(3-Me) = Cc1cccc(C[C@H](N)C(=O)O)c1; Val(3-OH) = CC(C)(O)[C@H](N)C(=O)O; hPhe = N[C@@H](CCc1ccccc1)C(=O)O; Cha = N[C@@H](CC1CCCCC1)C(=O)O; Ile(3ξ) = CCC(C)[C@H](N)C(=O)O; Suc = O=C(CCC(=O)[*:2])[*:1]; Carboxymethyl = O=C(O)C*; NMeA = CN[C@@H](C)C(=O)O; Orn = NCCC[C@H](N)C(=O)O; Dab = NCC[C@H](N)C(=O)O; Dap = NC[C@H](N)C(=O)O; X9 = O=C(CCF)*

Target: T1, PE-labeled human PD-L1-Ig binding to Jurkat cell line over-expressing human PD-1 (Jurkat-PD-1) (Homo sapiens, UniProt Q15116)
T1 construct: expressed in transfected cells; host or cells: Jurkat
T1 sequence (Q15116 25-288): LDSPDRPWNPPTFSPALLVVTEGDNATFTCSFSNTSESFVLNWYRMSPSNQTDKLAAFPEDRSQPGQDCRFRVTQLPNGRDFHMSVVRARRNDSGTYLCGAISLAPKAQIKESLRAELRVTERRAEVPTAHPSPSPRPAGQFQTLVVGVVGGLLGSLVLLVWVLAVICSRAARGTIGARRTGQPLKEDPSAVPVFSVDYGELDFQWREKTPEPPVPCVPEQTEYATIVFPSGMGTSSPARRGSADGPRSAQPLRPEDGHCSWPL
Test: Jurkat-PD-1 Cell Binding High-Content Screening Assay (CBA): Method 1
Settings: Jurkat-hPD-1 cells, PE-labeled PD-L1-Ig 20 nM final; read-out: Jurkat HPDL1 PD1 IC50 (uM) (Method 1)
Protocol: Phycoerythrin (PE) was covalently linked to the Ig epitope tag of human PD-L1-Ig and fluorescently-labeled PD-L1-Ig was used for binding studies with a Jurkat cell line over-expressing human PD-1 (Jurkat-PD-1). Briefly, 8×10^3 Jurkat-hPD-1 cells were seeded into 384 well plates in 20 μl of DMEM supplemented with 10% fetal calf serum. 100 nl of compound was added to cells followed by incubation at 37° C. for 2 hours. Then, 5 μl of PE-labeled PD-L1-Ig (20 nM final), diluted in DMEM supplemented with 10% fetal calf serum. […] Data was collected and processed using a Cell Insight NXT High Content Imager and associated software.

IC50 [µM] | SMILES
0.08 | CC(C)C[C@@H]1NC(=O)[C@H](CCN)NC(=O)[C@@H](CC(C)C)NC(=O)[C@H](C)N(C)C(=O)[C@H](CCCNC(=N)N)NC(=O)[C@H](Cc2ccc(-c3ccccc3)cc2)NC(=O)[C@H](C(C)C)NC(=O)[C@H](Cc2c[nH]c3ccccc23)NC(=O)[C@H](CC(=O)O)NC(=O)[C@H](Cc2ccc(C#N)cc2)NC(=O)[C@H](CN)NC(=O)CSC[C@@H](C(=O)N[C@@H](C)C(N)=O)NC(=O)[C@H]([C@@H](C)O)NC(=O)[C@H](C(C)C)NC1=O [Compound 1444] ({CH2CO}-[Dap][Phe(4-CN)]DWV[Bip]R[NMeA][dL][Dab]LVTCA-NH2; thioether N-14)
0.11 | CC(C)C[C@@H]1NC(=O)[C@H](CCN)NC(=O)[C@@H](CC(C)C)NC(=O)[C@H](C)N(C)C(=O)[C@H](CCCN)NC(=O)[C@H](Cc2ccc(-c3ccccc3)cc2)NC(=O)[C@H](C(C)C)NC(=O)[C@H](Cc2c[nH]c3ccccc23)NC(=O)[C@H](CC(=O)O)NC(=O)[C@H](Cc2ccc(O)cc2)NC(=O)[C@H](CCC(N)=O)NC(=O)CSC[C@@H](C(=O)N[C@@H](C)C(N)=O)NC(=O)[C@H]([C@@H](C)O)NC(=O)[C@H](C(C)C)NC1=O [Compound 1363] ({CH2CO}-QYDWV[Bip][Orn][NMeA][dL][Dab]LVTCA-NH2; thioether N-14)
0.02 | CCC(C)[C@@H]1NC(=O)[C@H](Cc2ccc(-c3ccccc3)cc2)NC(=O)[C@H](CC(C)C)NC(=O)[C@H](Cc2c[nH]c3ccccc23)NC(=O)[C@H](CC(=O)O)NC(=O)[C@H](Cc2ccc(C(=O)O)cc2)NC(=O)[C@H](Cc2ccc(OCC(=O)O)cc2)NC(=O)CSC[C@@H](C(=O)N[C@@H](CO)C(N)=O)NC(=O)[C@H]([C@@H](C)O)NC(=O)[C@H](C(C)C)NC(=O)[C@H](CC2CCCCC2)NC(=O)[C@H](CCN)NC(=O)[C@@H](CC(C)C)NC(=O)[C@H](C)N(C)C1=O (stereo partly drawn) [Compound 1928] ({CH2CO}-Y(Carboxymethyl)[Phe(4-COOH)]DWL[Bip][Ile(3ξ)][NMeA][dL][Dab][Cha]VTCS-NH2; thioether N-14)

Target: T2, Alexa fluor-647 labeled human PD-L1-Ig binding to Jurkat cell line over-expressing human PD-1 (Homo sapiens, UniProt Q15116)
T2 construct: expressed in transfected cells; host or cells: Jurkat
T2 sequence (Q15116 25-288): as above
Test: Jurkat-PD-1 Cell Binding High-Content Screening Assay (CBA): Method 3 (Alexa fluor-647 labeled PD-L1-Ig)
Settings: Jurkat-PD-1 cells, Alexa fluor-647 labeled PD-L1-Ig 177 nM; head μM; read-out: CBA Method 3 μM
Protocol: Jurkat-PD-1 Cell Binding High-Content Screening Assay (CBA): Method 3
Alexa fluor-647 was covalently linked to the Ig epitope tag of human PD-L1-Ig and fluorescently labeled PD-L1-Ig was used for the binding studies with a Jurkat cell line over-expressing human PD-1. Briefly, 2.5×10^4 Jurkat-hPD-1 cells were seeded into 384 well plates in 20 μl of RPMI supplemented with 10% fetal calf serum. 12.5 nl of compound was added to cells followed by incubation at 37° C. for 2 hours. Then, 10 ul of Alexa fluor-647 labeled PD-L1-Ig (177 nM final), diluted in RPMI supplemented with 10% fetal calf serum was added to the cells and incubated for 1 hour. Cells were then fixed with 4% paraformaldehyde containing 10 μg/ml Hoechst 33342 and then washed 3× in 100 ul PBS and 100 ul of PBS was added in the final step. Data was collected using the Operetta High Content Imager and the data was analyzed using the columbus software.

IC50 [µM] | SMILES
0.02 | CC(C)C[C@H]1NC(=O)[C@H](C)N(C)C(=O)[C@H](Cc2ccc(C(=O)O)cc2)NC(=O)[C@H](Cc2ccc(-c3ccccc3)cc2)NC(=O)[C@H](Cc2ccc(C(=O)O)cc2)NC(=O)[C@H](Cc2cccc(C(F)(F)F)c2)NC(=O)[C@H](CC(=O)O)NC(=O)[C@H](Cc2ccc(C(=O)O)cc2)NC(=O)[C@H](CN2CCOCC2)NC(=O)CSC[C@@H](C(=O)N[C@@H](CCN)C(N)=O)NC(=O)[C@H](CNC(=O)CCF)NC(=O)[C@H](C(C)C)NC(=O)[C@H](CC2CCCCC2)NC(=O)[C@H](CCN)NC1=O [Example 5233] ({CH2CO}-[Ala(morpholin-4-yl)][Phe(4-COOH)]D[Phe(3-CF3)][Phe(4-COOH)][Bip][Phe(4-COOH)][NMeA][dL][Dab][Cha]V[Dap](X9)C[Dab]-NH2; thioether N-14)
0.04 | CC(=O)Nc1ccc(-c2ccc(C[C@@H]3NC(=O)[C@H](Cc4cccc(C(F)(F)F)c4)NC(=O)[C@H](CC(=O)O)NC(=O)[C@H](Cc4ccc(C(=O)O)cc4)NC(=O)[C@H](CC(C)C)NC(=O)CSC[C@@H](C(=O)N[C@@H](CCN)C(N)=O)NC(=O)[C@H](CCCN)NC(=O)[C@H](C(C)C)NC(=O)[C@H](CC4CCCCC4)NC(=O)[C@H](CCN)NC(=O)[C@@H](CC(C)C)NC(=O)[C@H](C)N(C)C(=O)[C@H](CCCN)NC(=O)[C@H](Cc4ccc(-c5ccccc5)cc4)NC3=O)cc2)cc1 [Example 5096] ({CH2CO}-L[Phe(4-COOH)]D[Phe(3-CF3)][Bip(4'-NHAc)][Bip][Orn][NMeA][dL][Dab][Cha]V[Orn]C[Dab]-NH2; thioether N-14)
0.16 | Cc1cccc(C[C@@H]2NC(=O)[C@H](CC(=O)O)NC(=O)[C@H](Cc3ccc(OCC(=O)O)cc3)NC(=O)[C@H](CC3CCCCC3)NC(=O)CSC[C@@H](C(=O)N[C@@H](CCN)C(N)=O)NC(=O)[C@H](CCCN)NC(=O)[C@H](C(C)C)NC(=O)[C@H](CCN)NC(=O)[C@H](CCN)NC(=O)[C@@H](CC(C)C)NC(=O)[C@H](C)N(C)C(=O)[C@H](CCC(N)=O)NC(=O)[C@H](Cc3ccc(-c4ccccc4)cc3)NC(=O)[C@H](Cc3ccc(C(=O)O)cc3)NC2=O)c1 [Example 5205] ({CH2CO}-[Cha]Y(Carboxymethyl)D[Phe(3-Me)][Phe(4-COOH)][Bip]Q[NMeA][dL][Dab][Dab]V[Orn]C[Dab]-NH2; thioether N-14)
0.16 | CC(C)C[C@H]1NC(=O)[C@H](C)N(C)C(=O)[C@H](Cc2ccc(C(=O)O)cc2)NC(=O)[C@H](Cc2ccc(-c3ccccc3)cc2)NC(=O)[C@H](CCc2ccccc2)NC(=O)[C@H](Cc2cccc(C(F)(F)F)c2)NC(=O)[C@H](CC(=O)N[C@@H](CC(=O)O)C(=O)O)NC(=O)[C@H](Cc2ccc(C(=O)O)cc2)NC(=O)[C@H](CN2CCOCC2)NC(=O)CSC[C@@H](C(=O)N[C@@H](CCN)C(N)=O)NC(=O)[C@H](CCC(N)=O)NC(=O)[C@H](C(C)C)NC(=O)[C@H](CC2CCCCC2)NC(=O)[C@H](CCN)NC1=O [Example 5281] ({CH2CO}-[Ala(morpholin-4-yl)][Phe(4-COOH)]D(Asp)[Phe(3-CF3)][hPhe][Bip][Phe(4-COOH)][NMeA][dL][Dab][Cha]VQC[Dab]-NH2; thioether N-14)
0.07 | CC(=O)Nc1ccc(-c2ccc(C[C@@H]3NC(=O)[C@H](Cc4cccc(C(F)(F)F)c4)NC(=O)[C@H](CC(=O)O)NC(=O)[C@H](Cc4ccc(C(=O)O)cc4)NC(=O)[C@H](Cc4ccc(OCC(=O)O)cc4)NC(=O)CSC[C@@H](C(=O)N[C@@H](CCN)C(N)=O)NC(=O)[C@H](CCC(=O)O)NC(=O)[C@H](C(C)C)NC(=O)[C@H](CC4CCCCC4)NC(=O)[C@H](CCN)NC(=O)[C@@H](CC(C)C)NC(=O)[C@H](C)N(C)C(=O)[C@H](Cc4ccc(OCC(=O)O)cc4)NC(=O)[C@H](Cc4ccc(-c5ccccc5)cc4)NC3=O)cc2)cc1 [Example 5156] ({CH2CO}-Y(Carboxymethyl)[Phe(4-COOH)]D[Phe(3-CF3)][Bip(4'-NHAc)][Bip]Y(Carboxymethyl)[NMeA][dL][Dab][Cha]VEC[Dab]-NH2; thioether N-14)

Same assay, conditions: Jurkat-PD-1 cells, Alexa fluor-647 labeled PD-L1-Ig 177 nM; nM; read-out: CBA Method 3

IC50 [µM] | SMILES
0.0015 | CC(C)C[C@H]1NC(=O)[C@H](C)N(C)C(=O)[C@H](CCC(N)=O)NC(=O)[C@H](Cc2ccc(-c3ccccc3)cc2)NC(=O)[C@H](CCc2ccccc2)NC(=O)[C@H](Cc2cccc(C(F)(F)F)c2)NC(=O)[C@H](CC(=O)O)NC(=O)[C@H](Cc2ccc(OCC(=O)O)cc2)NC(=O)[C@H]([C@@H](C)N)NC(=O)CSC[C@@H](C(=O)N[C@@H](CCN)C(N)=O)NC(=O)[C@H](CO)NC(=O)[C@H](C(C)(C)O)NC(=O)[C@H](CC2CCCCC2)NC(=O)[C@H](CCN)NC1=O [Example 5227] ({CH2CO}-[Abu(3R-NH2)]Y(Carboxymethyl)D[Phe(3-CF3)][hPhe][Bip]Q[NMeA][dL][Dab][Cha][Val(3-OH)]SC[Dab]-NH2; thioether N-14)
0.0011 | Cc1cccc(C[C@@H]2NC(=O)[C@H](CC(=O)O)NC(=O)[C@H](Cc3ccc(OCC(=O)O)cc3)NC(=O)[C@H](Cc3cccc(C(F)(F)F)c3)NC(=O)CSC[C@@H](C(=O)N[C@@H](CCN)C(N)=O)NC(=O)[C@H](CCCN)NC(=O)[C@H](C(C)C)NC(=O)[C@H](CC3CCCCC3)NC(=O)[C@H](CCN)NC(=O)[C@@H](CC(C)C)NC(=O)[C@H](C)N(C)C(=O)[C@H](CCC(N)=O)NC(=O)[C@H](Cc3ccc(-c4ccccc4)cc3)NC(=O)[C@H](Cc3ccc(C(=O)O)cc3)NC2=O)c1 [Example 5276] ({CH2CO}-[Phe(3-CF3)]Y(Carboxymethyl)D[Phe(3-Me)][Phe(4-COOH)][Bip]Q[NMeA][dL][Dab][Cha]V[Orn]C[Dab]-NH2; thioether N-14)
0.0033 | CC(C)C[C@H]1NC(=O)[C@H](C)N(C)C(=O)[C@H](Cc2ccc(C(=O)O)cc2)NC(=O)[C@H](Cc2ccc(-c3ccccc3)cc2)NC(=O)[C@H](Cc2ccc(C(=O)O)cc2)NC(=O)[C@H](Cc2cccc(C(F)(F)F)c2)NC(=O)[C@H](CC(=O)O)NC(=O)[C@H](Cc2ccc(C(=O)O)cc2)NC(=O)[C@H](CN2CCOCC2)NC(=O)CSC[C@@H](C(=O)N[C@@H](CCN)C(N)=O)NC(=O)[C@H](CNC(=O)CCC(=O)O)NC(=O)[C@H](C(C)C)NC(=O)[C@H](CC2CCCCC2)NC(=O)[C@H](CCN)NC1=O [Example 5142] ({CH2CO}-[Ala(morpholin-4-yl)][Phe(4-COOH)]D[Phe(3-CF3)][Phe(4-COOH)][Bip][Phe(4-COOH)][NMeA][dL][Dab][Cha]V[Dap](Suc)C[Dab]-NH2; thioether N-14)
0.0008 | CC(C)C[C@H]1NC(=O)[C@H](C)N(C)C(=O)[C@H](Cc2ccc(C(=O)O)cc2)NC(=O)[C@H](Cc2ccc(-c3ccccc3)cc2)NC(=O)[C@H](Cc2ccc(C(=O)O)cc2)NC(=O)[C@H](Cc2cccc(C(F)(F)F)c2)NC(=O)[C@H](CC(=O)O)NC(=O)[C@H](Cc2ccc(C(=O)O)cc2)NC(=O)[C@H](CC2CCCCC2)NC(=O)CSC[C@@H](C(=O)N[C@@H](CCN)C(N)=O)NC(=O)[C@H](CNC(=O)CCC(=O)O)NC(=O)[C@H](C(C)C)NC(=O)[C@H](CC2CCCCC2)NC(=O)[C@H](CCN)NC1=O [Example 5228] ({CH2CO}-[Cha][Phe(4-COOH)]D[Phe(3-CF3)][Phe(4-COOH)][Bip][Phe(4-COOH)][NMeA][dL][Dab][Cha]V[Dap](Suc)C[Dab]-NH2; thioether N-14)
